Assay results: PMC7265341, “Quantifying CDK inhibitor selectivity in live cells” (Nature Communications, 2020)
Read-outs that look alike come from different tables or passages of the source.

What was measured:
CDK1/Cyclin E1 = CDK1/Cyclin E1 (Homo sapiens, UniProt P06493); test: NanoBRET live-cell target engagement, CDK1-NanoLuc/Cyclin E1 in HEK-293; format: binding; settings: CDK1/E1, read-out: Inhibition at 10µM (%)
CDK2/Cyclin E1 = CDK2/Cyclin E1 (Homo sapiens, UniProt P24941); test: NanoBRET live-cell target engagement, CDK2-NanoLuc/Cyclin E1 in HEK-293; format: binding; settings: CDK2/E1, read-out: Inhibition at 10µM (%)
CDK3/Cyclin E1 = CDK3/Cyclin E1 (Homo sapiens, UniProt Q00526); test: NanoBRET live-cell target engagement, CDK3-NanoLuc/Cyclin E1 in HEK-293; format: binding; settings: CDK3/E1, read-out: Inhibition at 10µM (%)
Chain of CDK3/Cyclin E1 (Q00526 whole entry): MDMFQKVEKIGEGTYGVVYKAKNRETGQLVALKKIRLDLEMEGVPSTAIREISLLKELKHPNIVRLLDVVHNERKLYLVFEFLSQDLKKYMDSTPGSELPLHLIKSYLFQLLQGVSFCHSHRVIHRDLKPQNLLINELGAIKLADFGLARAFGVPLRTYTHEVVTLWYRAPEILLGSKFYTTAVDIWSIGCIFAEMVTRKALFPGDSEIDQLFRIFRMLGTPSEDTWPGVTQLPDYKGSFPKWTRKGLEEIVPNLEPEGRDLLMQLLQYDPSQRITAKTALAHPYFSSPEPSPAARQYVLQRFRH
Chain of CDK3/Cyclin E1 (P24864 whole entry partner): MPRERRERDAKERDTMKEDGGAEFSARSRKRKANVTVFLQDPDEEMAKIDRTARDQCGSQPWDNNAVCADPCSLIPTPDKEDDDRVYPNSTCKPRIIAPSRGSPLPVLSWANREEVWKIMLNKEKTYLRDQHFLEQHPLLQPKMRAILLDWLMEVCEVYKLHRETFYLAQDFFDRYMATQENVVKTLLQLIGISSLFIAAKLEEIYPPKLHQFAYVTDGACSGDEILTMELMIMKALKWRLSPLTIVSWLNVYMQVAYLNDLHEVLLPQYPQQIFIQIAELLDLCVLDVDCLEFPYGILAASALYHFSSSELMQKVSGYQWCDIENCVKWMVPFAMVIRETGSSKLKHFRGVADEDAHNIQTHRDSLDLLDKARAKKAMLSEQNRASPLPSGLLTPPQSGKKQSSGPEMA

CDK4/Cyclin D1 = CDK4/Cyclin D1 (Homo sapiens, UniProt P11802); test: NanoBRET live-cell target engagement, NanoLuc-CDK4/Cyclin D1 in HEK-293; format: binding; settings: CDK4/D1; for IC50: read-out: IC50; for inhibition at 10 µM: read-out: Inhibition at 10µM (%)
Chain of CDK4/Cyclin D1 (P11802 whole entry): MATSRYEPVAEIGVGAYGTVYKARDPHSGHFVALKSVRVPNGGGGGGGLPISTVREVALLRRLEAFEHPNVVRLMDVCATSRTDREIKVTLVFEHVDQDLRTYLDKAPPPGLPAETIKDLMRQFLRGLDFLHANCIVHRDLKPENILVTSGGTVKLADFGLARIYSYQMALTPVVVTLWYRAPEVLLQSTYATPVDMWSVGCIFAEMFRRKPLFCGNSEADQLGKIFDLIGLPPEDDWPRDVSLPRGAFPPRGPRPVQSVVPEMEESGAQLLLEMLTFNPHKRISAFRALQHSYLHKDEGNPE
Chain of CDK4/Cyclin D1 (P24385 whole entry partner): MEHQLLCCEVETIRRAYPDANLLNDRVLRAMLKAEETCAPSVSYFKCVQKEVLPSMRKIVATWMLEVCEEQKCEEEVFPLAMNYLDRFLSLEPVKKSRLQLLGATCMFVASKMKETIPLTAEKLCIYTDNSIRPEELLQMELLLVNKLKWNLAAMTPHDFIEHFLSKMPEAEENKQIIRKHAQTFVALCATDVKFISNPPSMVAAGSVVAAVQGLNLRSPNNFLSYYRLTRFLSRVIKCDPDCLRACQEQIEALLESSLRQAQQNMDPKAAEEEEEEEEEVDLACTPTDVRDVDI

CDK5/CDK5R1 = CDK5/CDK5R1 (Homo sapiens, UniProt Q00535); test: NanoBRET live-cell target engagement, CDK5-NanoLuc/CDK5R1 in HEK-293; format: binding; settings: CDK5/CDK5R1, read-out: Inhibition at 10µM (%)
CDK6/Cyclin D1 = CDK6/Cyclin D1 (Homo sapiens, UniProt Q00534); test: NanoBRET live-cell target engagement, NanoLuc-CDK6/Cyclin D1 in HEK-293; format: binding; settings: CDK6/D1; for IC50: read-out: IC50; for inhibition at 10 µM: read-out: Inhibition at 10µM (%)
Chain of CDK6/Cyclin D1 (Q00534 whole entry): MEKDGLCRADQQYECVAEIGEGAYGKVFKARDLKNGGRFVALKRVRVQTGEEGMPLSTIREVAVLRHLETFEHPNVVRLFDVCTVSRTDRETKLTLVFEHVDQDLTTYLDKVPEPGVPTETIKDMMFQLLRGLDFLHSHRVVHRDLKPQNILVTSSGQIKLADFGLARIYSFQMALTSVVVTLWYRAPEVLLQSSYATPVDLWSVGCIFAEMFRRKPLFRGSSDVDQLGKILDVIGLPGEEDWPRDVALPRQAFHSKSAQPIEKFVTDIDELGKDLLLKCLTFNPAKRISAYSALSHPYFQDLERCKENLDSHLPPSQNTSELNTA
Chain of CDK6/Cyclin D1 (P24385 whole entry partner): as the sequence (P24385 whole entry partner) above

CDK7 = CDK7 (Homo sapiens, UniProt P50613); test: NanoBRET live-cell target engagement, NanoLuc-CDK7 in HEK-293; format: binding; settings: CDK7; for IC50: read-out: IC50; for inhibition at 10 µM: read-out: Inhibition at 10µM (%)
CDK8/Cyclin C = CDK8/Cyclin C (Homo sapiens, UniProt P49336); test: NanoBRET live-cell target engagement, NanoLuc-CDK8/Cyclin C in HEK-293; format: binding; settings: CDK8/C, read-out: Inhibition at 10µM (%)
CDK9/Cyclin K = CDK9/Cyclin K (Homo sapiens, UniProt P50750); test: NanoBRET live-cell target engagement, NanoLuc-CDK9/Cyclin K in HEK-293; format: binding; settings: CDK9/K, read-out: Inhibition at 10µM (%)
CDK11A/Cyclin L2 = target: T1, CDK11A/Cyclin L2 (Homo sapiens, UniProt Q9UQ88); test: NanoBRET live-cell target engagement, CDK11A-NanoLuc/Cyclin L2 in HEK-293; format: binding; settings: CDK11a/L2, read-out: Inhibition at 10µM (%)
T1 sequence (Q9UQ88 1-783): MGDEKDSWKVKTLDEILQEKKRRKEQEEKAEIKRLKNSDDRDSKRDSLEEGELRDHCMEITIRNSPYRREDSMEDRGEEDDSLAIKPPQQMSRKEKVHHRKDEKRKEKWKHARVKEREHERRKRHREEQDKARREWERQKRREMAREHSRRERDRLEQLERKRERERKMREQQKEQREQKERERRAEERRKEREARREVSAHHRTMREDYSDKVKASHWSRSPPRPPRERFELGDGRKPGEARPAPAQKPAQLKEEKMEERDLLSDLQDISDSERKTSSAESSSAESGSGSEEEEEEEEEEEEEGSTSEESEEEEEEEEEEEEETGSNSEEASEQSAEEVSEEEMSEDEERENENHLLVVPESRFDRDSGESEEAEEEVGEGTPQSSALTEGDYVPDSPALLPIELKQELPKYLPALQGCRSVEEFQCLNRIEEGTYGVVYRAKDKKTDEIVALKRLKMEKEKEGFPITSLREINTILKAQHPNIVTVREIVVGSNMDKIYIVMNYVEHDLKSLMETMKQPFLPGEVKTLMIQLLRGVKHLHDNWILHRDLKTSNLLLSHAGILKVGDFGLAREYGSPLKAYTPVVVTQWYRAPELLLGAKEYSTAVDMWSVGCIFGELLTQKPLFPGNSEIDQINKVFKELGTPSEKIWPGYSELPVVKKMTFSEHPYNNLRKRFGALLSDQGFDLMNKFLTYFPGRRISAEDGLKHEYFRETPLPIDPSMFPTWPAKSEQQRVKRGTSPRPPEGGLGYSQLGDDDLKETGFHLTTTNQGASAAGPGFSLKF

CDK11B/Cyclin L2 = CDK11B/Cyclin L2 (Homo sapiens, UniProt P21127); test: NanoBRET live-cell target engagement, CDK11B-NanoLuc/Cyclin L2 in HEK-293; format: binding; settings: CDK11b/L2, read-out: Inhibition at 10µM (%)
Chain of CDK11B/Cyclin L2 (P21127 1-782 isoform P21127-2): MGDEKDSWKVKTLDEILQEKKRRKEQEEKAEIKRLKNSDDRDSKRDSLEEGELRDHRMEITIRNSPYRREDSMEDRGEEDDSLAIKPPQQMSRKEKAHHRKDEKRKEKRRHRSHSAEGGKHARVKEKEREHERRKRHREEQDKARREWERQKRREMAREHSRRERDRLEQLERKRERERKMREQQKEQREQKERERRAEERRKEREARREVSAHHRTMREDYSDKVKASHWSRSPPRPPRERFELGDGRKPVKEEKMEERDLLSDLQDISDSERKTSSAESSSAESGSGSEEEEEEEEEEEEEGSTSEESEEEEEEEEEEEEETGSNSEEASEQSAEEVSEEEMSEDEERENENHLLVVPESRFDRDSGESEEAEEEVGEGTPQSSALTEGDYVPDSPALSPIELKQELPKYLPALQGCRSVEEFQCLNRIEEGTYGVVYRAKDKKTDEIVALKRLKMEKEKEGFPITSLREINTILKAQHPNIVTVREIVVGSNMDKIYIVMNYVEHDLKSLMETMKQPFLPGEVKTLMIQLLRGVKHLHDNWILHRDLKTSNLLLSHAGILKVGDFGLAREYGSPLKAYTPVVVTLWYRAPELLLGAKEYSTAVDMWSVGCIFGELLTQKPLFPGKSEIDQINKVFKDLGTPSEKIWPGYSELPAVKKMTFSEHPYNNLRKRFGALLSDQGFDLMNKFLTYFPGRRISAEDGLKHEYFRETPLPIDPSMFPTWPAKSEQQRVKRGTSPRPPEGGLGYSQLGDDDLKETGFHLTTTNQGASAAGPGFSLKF

CDK12/Cyclin K = CDK12/Cyclin K (Homo sapiens, UniProt Q9NYV4); test: NanoBRET live-cell target engagement, CDK12-NanoLuc/Cyclin K in HEK-293; format: binding; settings: CDK12/K, read-out: Inhibition at 10µM (%)
CDK13/Cyclin K = CDK13/Cyclin K (Homo sapiens, UniProt Q14004); test: NanoBRET live-cell target engagement, CDK13-NanoLuc/Cyclin K in HEK-293; format: binding; settings: CDK13/K, read-out: Inhibition at 10µM (%)
CDK15/Cyclin Y = CDK15/Cyclin Y (Homo sapiens, UniProt Q96Q40); test: NanoBRET live-cell target engagement, NanoLuc-CDK15/Cyclin Y in HEK-293; format: binding; settings: CDK15/Y, read-out: Inhibition at 10µM (%)
CDK16/Cyclin Y = CDK16/Cyclin Y (Homo sapiens, UniProt Q00536); test: NanoBRET live-cell target engagement, CDK16-NanoLuc/Cyclin Y in HEK-293; format: binding; settings: CDK16/Y; for IC50: read-out: IC50; for inhibition at 10 µM: read-out: Inhibition at 10µM (%)
Chain of CDK16/Cyclin Y (Q00536 whole entry): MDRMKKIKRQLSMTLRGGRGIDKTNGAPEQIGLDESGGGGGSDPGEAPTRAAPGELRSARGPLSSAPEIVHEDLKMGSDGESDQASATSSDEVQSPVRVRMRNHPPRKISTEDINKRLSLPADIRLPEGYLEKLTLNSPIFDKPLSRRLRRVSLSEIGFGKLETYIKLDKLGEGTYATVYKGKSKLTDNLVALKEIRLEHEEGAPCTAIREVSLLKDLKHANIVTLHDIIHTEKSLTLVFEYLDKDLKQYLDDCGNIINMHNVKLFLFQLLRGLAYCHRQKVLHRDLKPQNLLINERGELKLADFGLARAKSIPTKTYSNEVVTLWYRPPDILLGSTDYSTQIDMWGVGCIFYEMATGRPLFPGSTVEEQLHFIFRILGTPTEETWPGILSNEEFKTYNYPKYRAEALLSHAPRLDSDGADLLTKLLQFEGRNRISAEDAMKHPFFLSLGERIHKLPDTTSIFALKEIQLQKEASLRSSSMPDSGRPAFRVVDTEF
Chain of CDK16/Cyclin Y (Q8ND76 whole entry partner): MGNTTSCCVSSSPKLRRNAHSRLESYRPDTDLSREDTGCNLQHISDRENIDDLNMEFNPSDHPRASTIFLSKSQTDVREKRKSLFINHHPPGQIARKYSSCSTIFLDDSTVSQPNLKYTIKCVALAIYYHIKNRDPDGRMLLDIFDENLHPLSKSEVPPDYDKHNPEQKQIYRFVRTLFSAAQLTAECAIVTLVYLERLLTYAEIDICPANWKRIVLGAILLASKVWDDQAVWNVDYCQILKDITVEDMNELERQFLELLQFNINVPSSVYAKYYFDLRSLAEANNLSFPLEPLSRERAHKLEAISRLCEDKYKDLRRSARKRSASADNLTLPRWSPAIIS

CDK17/Cyclin Y = CDK17/Cyclin Y (Homo sapiens, UniProt Q00537); test: NanoBRET live-cell target engagement, CDK17-NanoLuc/Cyclin Y in HEK-293; format: binding; settings: CDK17/Y; for IC50: read-out: IC50; for inhibition at 10 µM: read-out: Inhibition at 10µM (%)
Chain of CDK17/Cyclin Y (Q00537 whole entry): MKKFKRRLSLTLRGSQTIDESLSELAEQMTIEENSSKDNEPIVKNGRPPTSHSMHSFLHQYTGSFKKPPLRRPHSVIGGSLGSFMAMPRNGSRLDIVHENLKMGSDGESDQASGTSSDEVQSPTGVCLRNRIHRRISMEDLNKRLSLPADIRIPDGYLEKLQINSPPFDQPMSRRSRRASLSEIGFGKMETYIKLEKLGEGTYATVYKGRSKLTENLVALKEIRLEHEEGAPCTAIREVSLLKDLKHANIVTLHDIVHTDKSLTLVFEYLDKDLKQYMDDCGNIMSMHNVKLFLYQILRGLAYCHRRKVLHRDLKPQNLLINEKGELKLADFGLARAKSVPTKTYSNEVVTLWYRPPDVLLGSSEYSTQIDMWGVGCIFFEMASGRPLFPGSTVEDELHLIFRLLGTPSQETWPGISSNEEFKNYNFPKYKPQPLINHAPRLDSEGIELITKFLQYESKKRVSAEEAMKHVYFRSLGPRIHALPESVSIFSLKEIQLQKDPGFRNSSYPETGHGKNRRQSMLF
Chain of CDK17/Cyclin Y (Q8ND76 whole entry partner): as the sequence (Q8ND76 whole entry partner) above

CDK18/Cyclin Y = CDK18/Cyclin Y (Homo sapiens, UniProt Q07002); test: NanoBRET live-cell target engagement, CDK18-NanoLuc/Cyclin Y in HEK-293; format: binding; settings: CDK18/Y; for IC50: read-out: IC50; for inhibition at 10 µM: read-out: Inhibition at 10µM (%)
Chain of CDK18/Cyclin Y (Q07002 whole entry): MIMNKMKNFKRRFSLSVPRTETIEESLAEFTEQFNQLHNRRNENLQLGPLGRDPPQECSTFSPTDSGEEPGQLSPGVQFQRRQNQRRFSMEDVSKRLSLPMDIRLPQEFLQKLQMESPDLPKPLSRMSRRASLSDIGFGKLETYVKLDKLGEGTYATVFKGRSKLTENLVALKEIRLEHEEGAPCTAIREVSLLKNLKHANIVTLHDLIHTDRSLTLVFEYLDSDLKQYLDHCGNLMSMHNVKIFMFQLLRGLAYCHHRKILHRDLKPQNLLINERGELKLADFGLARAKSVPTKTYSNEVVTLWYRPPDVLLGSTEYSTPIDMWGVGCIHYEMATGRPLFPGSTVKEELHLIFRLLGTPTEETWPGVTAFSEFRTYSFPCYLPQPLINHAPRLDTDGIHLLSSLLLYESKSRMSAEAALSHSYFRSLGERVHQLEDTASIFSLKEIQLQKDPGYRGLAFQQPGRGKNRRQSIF
Chain of CDK18/Cyclin Y (Q8ND76 whole entry partner): as the sequence (Q8ND76 whole entry partner) above

CDK20/Cyclin H = CDK20/Cyclin H (Homo sapiens, UniProt Q8IZL9); test: NanoBRET live-cell target engagement, NanoLuc-CDK20/Cyclin H in HEK-293; format: binding; settings: CDK20/H, read-out: Inhibition at 10µM (%)
CDK19/Cyclin C = CDK19/Cyclin C (Homo sapiens, UniProt Q9BWU1); test: NanoBRET live-cell target engagement, NanoLuc-CDK19/Cyclin C in HEK-293; settings: read-out: Inhibition at 10µM (%), CDK19/C

Chain of CDK1/Cyclin E1 (P06493 whole entry): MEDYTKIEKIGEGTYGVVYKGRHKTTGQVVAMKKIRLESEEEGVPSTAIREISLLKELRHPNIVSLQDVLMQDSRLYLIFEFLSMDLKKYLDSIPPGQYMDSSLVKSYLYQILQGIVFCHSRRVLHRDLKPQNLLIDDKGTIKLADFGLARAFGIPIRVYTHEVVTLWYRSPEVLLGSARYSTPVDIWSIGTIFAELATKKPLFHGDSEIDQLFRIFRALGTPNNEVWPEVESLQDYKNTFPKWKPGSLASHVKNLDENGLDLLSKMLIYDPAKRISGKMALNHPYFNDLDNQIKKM
Chain of CDK1/Cyclin E1 (P24864 whole entry partner): as the sequence (P24864 whole entry partner) above

- inhibition at 10 µM (CDK1/Cyclin E1; average): 18.6%
- inhibition at 10 µM (CDK1/Cyclin E1; experiment 1): 20.1%
- inhibition at 10 µM (CDK1/Cyclin E1; experiment 2): 17.1%
- inhibition at 10 µM (CDK2/Cyclin E1; average): 12.6%
- inhibition at 10 µM (CDK2/Cyclin E1; experiment 1): 14.4%
- inhibition at 10 µM (CDK2/Cyclin E1; experiment 2): 10.7%
- inhibition at 10 µM (CDK3/Cyclin E1; average): 24.7%
- inhibition at 10 µM (CDK3/Cyclin E1; experiment 1): 10.5%
- inhibition at 10 µM (CDK3/Cyclin E1; experiment 2): 38.9%
- IC50 (CDK4/Cyclin D1; average (± SEM where n=3)): 9 ± 3 nM
- inhibition at 10 µM (CDK4/Cyclin D1; average): 95.1%
- IC50 (CDK4/Cyclin D1; experiment 1): 6.9 nM
- inhibition at 10 µM (CDK4/Cyclin D1; experiment 1): 95.8%
- IC50 (CDK4/Cyclin D1; experiment 2): 5 nM
- inhibition at 10 µM (CDK4/Cyclin D1; experiment 2): 94.3%
- IC50 (CDK4/Cyclin D1; experiment 3): 15 nM
- inhibition at 10 µM (CDK5/CDK5R1; average): 4.3%
- inhibition at 10 µM (CDK5/CDK5R1; experiment 1): 8%
- inhibition at 10 µM (CDK5/CDK5R1; experiment 2): 0.554%
- IC50 (CDK6/Cyclin D1; average (± SEM where n=3)): 4 ± 1 nM
- inhibition at 10 µM (CDK6/Cyclin D1; average): 97.7%
- IC50 (CDK6/Cyclin D1; experiment 1): 4.8 nM
- inhibition at 10 µM (CDK6/Cyclin D1; experiment 1): 96.9%
- IC50 (CDK6/Cyclin D1; experiment 2): 3.4 nM
- inhibition at 10 µM (CDK6/Cyclin D1; experiment 2): 98.5%
- IC50 (CDK6/Cyclin D1; experiment 3): 3 nM
- IC50 (CDK7; average (± SEM where n=3)): 143 ± 4 nM
- inhibition at 10 µM (CDK7; average): 28.4%
- IC50 (CDK7; experiment 1): 140 nM
- inhibition at 10 µM (CDK7; experiment 1): 28.2%
- IC50 (CDK7; experiment 2): 150 nM
- inhibition at 10 µM (CDK7; experiment 2): 28.5%
- IC50 (CDK7; experiment 3): 139 nM
- inhibition at 10 µM (CDK8/Cyclin C; average): 8.5%
- inhibition at 10 µM (CDK8/Cyclin C; experiment 1): 6.2%
- inhibition at 10 µM (CDK8/Cyclin C; experiment 2): 10.8%
- inhibition at 10 µM (CDK9/Cyclin K; average): 34.2%
- inhibition at 10 µM (CDK9/Cyclin K; experiment 1): 32%
- inhibition at 10 µM (CDK9/Cyclin K; experiment 2): 36.4%
- inhibition at 10 µM (CDK11A/Cyclin L2; average): 12.6%
- inhibition at 10 µM (CDK11A/Cyclin L2; experiment 1): 15.7%
- inhibition at 10 µM (CDK11A/Cyclin L2; experiment 2): 9.5%
- inhibition at 10 µM (CDK11B/Cyclin L2; average): 36.8%
- inhibition at 10 µM (CDK11B/Cyclin L2; experiment 1): 11.7%
- inhibition at 10 µM (CDK11B/Cyclin L2; experiment 2): 61.9%
- inhibition at 10 µM (CDK12/Cyclin K; average): -3.9%
- inhibition at 10 µM (CDK12/Cyclin K; experiment 1): -2.7%
- inhibition at 10 µM (CDK12/Cyclin K; experiment 2): -5%
- inhibition at 10 µM (CDK13/Cyclin K; average): -15.1%
- inhibition at 10 µM (CDK13/Cyclin K; experiment 1): -1%
- inhibition at 10 µM (CDK13/Cyclin K; experiment 2): -29.2%
- inhibition at 10 µM (CDK15/Cyclin Y; average): 29.2%
- inhibition at 10 µM (CDK15/Cyclin Y; experiment 1): 36%
- inhibition at 10 µM (CDK15/Cyclin Y; experiment 2): 22.5%
- IC50 (CDK16/Cyclin Y; average (± SEM where n=3)): 39 ± 8 nM
- IC50 (CDK16/Cyclin Y; experiment 1): 23 nM
- inhibition at 10 µM (CDK16/Cyclin Y; experiment 1): 70.3%
- IC50 (CDK16/Cyclin Y; experiment 2): 47 nM
- inhibition at 10 µM (CDK16/Cyclin Y; experiment 2): 78.8%
- IC50 (CDK16/Cyclin Y; experiment 3): 48 nM
- IC50 (CDK17/Cyclin Y; average (± SEM where n=3)): 40 ± 4 nM
- inhibition at 10 µM (CDK17/Cyclin Y; average): 75.5%
- IC50 (CDK17/Cyclin Y; experiment 1): 32 nM
- inhibition at 10 µM (CDK17/Cyclin Y; experiment 1): 72.1%
- IC50 (CDK17/Cyclin Y; experiment 2): 43 nM
- inhibition at 10 µM (CDK17/Cyclin Y; experiment 2): 78.9%
- IC50 (CDK17/Cyclin Y; experiment 3): 44 nM
- IC50 (CDK18/Cyclin Y; average (± SEM where n=3)): 240 ± 50 nM
- inhibition at 10 µM (CDK18/Cyclin Y; average): 38.8%
- IC50 (CDK18/Cyclin Y; experiment 1): 283 nM
- inhibition at 10 µM (CDK18/Cyclin Y; experiment 1): 27.5%
- IC50 (CDK18/Cyclin Y; experiment 2): 300 nM
- inhibition at 10 µM (CDK18/Cyclin Y; experiment 2): 50%
- IC50 (CDK18/Cyclin Y; experiment 3): 150 nM
- inhibition at 10 µM (CDK20/Cyclin H; experiment 1): 23.1%
- inhibition at 10 µM (CDK20/Cyclin H; experiment 2): 26.8%
- inhibition at 10 µM (CDK19/Cyclin C; average): -0.3%
- inhibition at 10 µM (CDK19/Cyclin C; experiment 1): 6.6%
- inhibition at 10 µM (CDK19/Cyclin C; experiment 2): -7.2%
SMILES: CN1CCN(c2ccc(Nc3ncc4cc(C#N)c(=O)n(C5CCCC5)c4n3)cc2)CC1 [ON123300]
